Key:
[1] = test system: human MDR1 (P-gp); assay: Efflux ratio of apparent permeability from basolateral to apical side over apical to basolateral side in MDCK cells transfected with human MDR1; format: ADME, cell-based, Canis lupus familiaris; settings: dog
[2] = target: CYP2D6 (Homo sapiens, UniProt P10635); assay: Inhibition of CYP2D6 (unknown origin) at 3 uM after 8 mins; format: ADME
[3] = Intrinsic clearance in human liver microsomes; format: ADME; settings: read-out: CLH
[4] = target: Voltage-gated inwardly rectifying potassium channel KCNH2 (Homo sapiens, UniProt Q12809); assay: Inhibition of human ERG by [3H]dofetilide binding assay
Chain of Voltage-gated inwardly rectifying potassium channel KCNH2 (Q12809 whole entry): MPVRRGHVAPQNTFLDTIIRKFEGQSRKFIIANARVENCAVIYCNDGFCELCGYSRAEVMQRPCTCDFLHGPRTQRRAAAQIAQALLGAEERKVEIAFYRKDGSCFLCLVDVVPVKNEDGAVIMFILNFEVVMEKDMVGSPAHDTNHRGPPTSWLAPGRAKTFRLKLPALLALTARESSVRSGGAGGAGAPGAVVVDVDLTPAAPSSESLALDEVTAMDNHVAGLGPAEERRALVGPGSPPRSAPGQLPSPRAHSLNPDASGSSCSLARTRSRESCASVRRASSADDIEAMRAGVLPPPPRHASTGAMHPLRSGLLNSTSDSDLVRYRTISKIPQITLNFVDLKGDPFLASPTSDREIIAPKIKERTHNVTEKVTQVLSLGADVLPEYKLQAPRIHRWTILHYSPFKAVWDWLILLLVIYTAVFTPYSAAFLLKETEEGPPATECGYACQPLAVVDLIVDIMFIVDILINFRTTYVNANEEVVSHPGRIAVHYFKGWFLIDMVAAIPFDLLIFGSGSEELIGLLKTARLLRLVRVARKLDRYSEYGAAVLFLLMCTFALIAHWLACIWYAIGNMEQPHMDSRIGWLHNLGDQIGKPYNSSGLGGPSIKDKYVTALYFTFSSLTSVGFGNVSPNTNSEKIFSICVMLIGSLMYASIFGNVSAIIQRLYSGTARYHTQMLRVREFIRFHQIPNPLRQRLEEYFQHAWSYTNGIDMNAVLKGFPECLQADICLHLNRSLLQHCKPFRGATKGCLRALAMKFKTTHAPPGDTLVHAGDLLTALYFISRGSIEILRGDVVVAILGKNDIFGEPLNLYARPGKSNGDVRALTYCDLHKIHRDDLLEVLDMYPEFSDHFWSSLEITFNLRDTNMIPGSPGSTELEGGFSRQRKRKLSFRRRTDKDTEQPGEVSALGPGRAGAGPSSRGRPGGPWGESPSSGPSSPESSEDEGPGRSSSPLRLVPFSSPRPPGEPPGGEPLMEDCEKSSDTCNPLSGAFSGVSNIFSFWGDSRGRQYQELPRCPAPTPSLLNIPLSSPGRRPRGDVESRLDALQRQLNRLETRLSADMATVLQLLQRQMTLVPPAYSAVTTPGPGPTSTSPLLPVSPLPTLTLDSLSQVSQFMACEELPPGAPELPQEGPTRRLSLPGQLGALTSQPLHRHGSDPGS

[5] = test system: Rattus norvegicus; assay: Reduction in alcohol intake in alcohol-preferring rat at 3 mg/kg, sc after 30 mins; format: functional; settings: 0.5 h, route subcutaneous
[6] = species on record: Homo sapiens; assay: Ratio of Ki for human mu opioid receptor to Ki for human delta opioid receptor
[7] = target: Delta-type opioid receptor (Homo sapiens, UniProt P41143); assay: Displacement of [3H]diprenorphine from human delta opioid receptor expressed in cells after 1 hr by liquid scintillation counting analysis; format: cell-based
Chain of Delta-type opioid receptor (P41143 whole entry): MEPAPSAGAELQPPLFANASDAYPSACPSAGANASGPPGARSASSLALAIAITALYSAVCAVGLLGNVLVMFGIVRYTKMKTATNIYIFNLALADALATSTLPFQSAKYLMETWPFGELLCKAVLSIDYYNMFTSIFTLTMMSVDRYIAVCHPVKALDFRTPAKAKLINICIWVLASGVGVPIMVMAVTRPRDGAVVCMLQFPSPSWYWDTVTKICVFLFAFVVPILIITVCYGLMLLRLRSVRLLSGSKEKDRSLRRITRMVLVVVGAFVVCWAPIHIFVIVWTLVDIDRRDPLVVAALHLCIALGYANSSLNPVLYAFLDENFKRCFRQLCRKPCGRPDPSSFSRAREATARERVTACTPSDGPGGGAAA

[8] = target: T1, Mu-type opioid receptor (Homo sapiens, UniProt P35372); assay: Displacement of [3H]diprenorphine from human mu opioid receptor expressed in cells after 1 hr by liquid scintillation counting analysis; format: cell-based
T1 sequence (P35372 whole entry): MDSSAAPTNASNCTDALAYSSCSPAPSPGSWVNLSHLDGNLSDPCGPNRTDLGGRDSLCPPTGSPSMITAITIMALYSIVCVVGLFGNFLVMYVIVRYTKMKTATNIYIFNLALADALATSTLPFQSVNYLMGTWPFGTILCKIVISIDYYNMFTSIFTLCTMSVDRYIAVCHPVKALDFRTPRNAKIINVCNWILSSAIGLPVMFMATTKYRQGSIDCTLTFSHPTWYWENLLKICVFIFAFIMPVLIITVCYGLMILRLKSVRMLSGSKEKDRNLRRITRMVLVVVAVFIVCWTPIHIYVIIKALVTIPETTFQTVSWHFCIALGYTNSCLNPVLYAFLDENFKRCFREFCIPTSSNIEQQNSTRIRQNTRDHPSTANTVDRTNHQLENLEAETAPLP

[9] = species on record: Homo sapiens; assay: Ratio of ki for human mu opioid receptor to human kappa opioid receptor
[10] = target: T1, Mu-type opioid receptor; assay: Antagonist activity at human mu opioid receptor expressed in CHO cells assessed as [35S]-GTPgammaS binding after 1 hr by liquid scintillation counting analysis; format: functional, cell-based
[11] = target: Kappa-type opioid receptor (Homo sapiens, UniProt P41145); assay: Displacement of [3H]diprenorphine from human kappa opioid receptor expressed in cells after 1 hr by liquid scintillation counting analysis; format: cell-based
Chain of Kappa-type opioid receptor (P41145 whole entry): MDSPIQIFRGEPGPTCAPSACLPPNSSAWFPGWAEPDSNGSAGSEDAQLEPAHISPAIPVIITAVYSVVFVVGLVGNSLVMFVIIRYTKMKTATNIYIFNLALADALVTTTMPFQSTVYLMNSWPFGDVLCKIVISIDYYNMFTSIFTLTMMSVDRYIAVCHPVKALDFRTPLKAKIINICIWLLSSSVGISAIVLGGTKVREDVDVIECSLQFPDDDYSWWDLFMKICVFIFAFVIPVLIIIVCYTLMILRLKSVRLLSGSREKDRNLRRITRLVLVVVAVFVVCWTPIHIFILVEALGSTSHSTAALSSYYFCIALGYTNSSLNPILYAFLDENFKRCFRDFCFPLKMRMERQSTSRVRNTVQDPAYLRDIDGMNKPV

[12] = Half life in rat; format: ADME, organism-based; settings: in vivo
[13] = Drug level in rat cerebrospinal fluid at 1 mg/kg, sc at 0.75 hrs time-point; format: ADME, organism-based; set-up: dose 1 mg/kg, route subcutaneous; settings: read-out: Drug uptake
[14] = Clearance in rat; format: ADME, organism-based; settings: in vivo
[15] = Ratio of drug level in rat brain to plasma at 1 mg/kg, sc at 0.75 hrs time-point; format: ADME, organism-based; set-up: dose 1 mg/kg, route subcutaneous; settings: read-out: BPR
[16] = test system: Rattus norvegicus; assay: Reduction in alcohol intake in alcohol-preferring rat at 1 mg/kg, sc after 30 mins; format: functional; settings: 0.5 h, route subcutaneous
[17] = Total plasma concentration in rat at 1 mg/kg, sc at 0.75 hrs time-point; format: ADME, organism-based; set-up: dose 1 mg/kg, route subcutaneous
[18] = test system: Rattus norvegicus; assay: Reduction in alcohol intake in sc dosed alcohol-preferring rat after 30 mins; format: functional, organism-based
[19] = test system: Rattus norvegicus; assay: Reduction in alcohol intake in alcohol-preferring rat at 5.6 mg/kg, sc after 30 mins; format: functional; settings: 0.5 h, route subcutaneous
[20] = test system: Rattus norvegicus; assay: Antagonist activity against morphine-induced antinociception in sc dosed rat assessed as reversal of latency increase; format: functional
[21] = Volume of distribution in rat; format: ADME, organism-based; settings: in vivo
[22] = Fraction unbound in rat at 1 mg/kg, sc at 0.75 hrs time-point; format: ADME, organism-based; set-up: dose 1 mg/kg, route subcutaneous; settings: plasma
[23] = target: hERG (KCNH2) (Homo sapiens, UniProt Q12809); assay: Inhibition of human ERG
Chain of hERG (KCNH2) (Q12809 whole entry): as the sequence (Q12809 whole entry) above

[24] = Inhibition of IC20 for human ERG over plasma efficacious concentration; format: functional

Chain of CYP2D6 (P10635 whole entry): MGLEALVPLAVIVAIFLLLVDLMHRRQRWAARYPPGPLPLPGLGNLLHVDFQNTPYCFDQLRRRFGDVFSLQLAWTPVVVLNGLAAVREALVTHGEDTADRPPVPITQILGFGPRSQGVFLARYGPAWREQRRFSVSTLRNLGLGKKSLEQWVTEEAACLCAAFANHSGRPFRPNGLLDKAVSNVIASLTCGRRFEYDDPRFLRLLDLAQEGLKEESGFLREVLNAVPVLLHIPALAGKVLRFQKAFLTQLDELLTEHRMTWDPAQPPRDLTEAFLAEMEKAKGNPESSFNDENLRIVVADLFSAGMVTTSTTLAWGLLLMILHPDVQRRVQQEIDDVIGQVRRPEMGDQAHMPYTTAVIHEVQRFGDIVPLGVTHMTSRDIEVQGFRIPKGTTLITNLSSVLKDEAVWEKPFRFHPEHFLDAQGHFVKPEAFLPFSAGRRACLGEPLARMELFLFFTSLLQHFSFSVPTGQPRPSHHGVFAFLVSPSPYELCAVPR

CC[C@]1(c2cccc(NS(C)(=O)=O)c2)[C@@H]2CN(CC3Cc4ccccc4C3)C[C@@H]21
efflux ratio [1]: 3.5
inhibition at 8 min, 3 µM [2]: 35%
CLint scaled [3]: 19 mL/min/kg
IC50 [4]: 326 nM

O=C1CC[C@@]2(O)[C@H]3Cc4ccc(O)c5c4[C@@]2(CCN3CC2CC2)[C@H]1O5 [NALTREXONE]
inhibition in vivo at 3 mg/kg [5]: 21%

CC[C@]1(c2cccc(C(N)=O)c2)[C@@H]2CN(CC3(O)Cc4ccccc4C3)C[C@@H]21
efflux ratio [1]: 2.9
Ratio Ki [6]: 31
Ki [7]: 108 nM
Ki [8]: 3.5 nM
inhibition at 8 min, 3 µM [2]: 17%
Ratio Ki [9]: 17
CLint scaled [3]: 11 mL/min/kg
Ki [10]: 0.16 nM
IC50 [4]: 2200 nM
Ki [11]: 60 nM

CC[C@]1(c2cccc(NS(C)(=O)=O)c2)[C@@H]2CN(CC3(O)Cc4ccccc4C3)C[C@@H]21 [CP-866087]
Ki [7]: 170 nM
Ki [8]: 1 nM
half-life [12]: 11 h
concentration at 0.75 h [13]: 11.9 nM
inhibition at 8 min, 3 µM [2]: 6%
clearance [14]: 120 mL/min/kg
Kp at 0.75 h [15]: 2
inhibition in vivo at 1 mg/kg [16]: 23%
concentration at 0.75 h [17]: 338 nM
inhibition [18]: Dose-dependent effect
CLint scaled [3]: 12 mL/min/kg
Ki [10]: 0.28 nM
inhibition in vivo at 5.6 mg/kg [19]: 42%
ED50 [20]: 0.1 mg/kg
Vd [21]: 21.7 L/kg
Ki [11]: 42 nM
fraction unbound at 0.75 h [22]: 0.034

CC[C@]1(c2cccc(NS(C)(=O)=O)c2)[C@@H]2CN(CCCC3(O)CCCCC3)C[C@@H]21
efflux ratio [1]: 6.5
Ratio Ki [6]: 83
Ki [7]: 166 nM
Ki [8]: 2 nM
inhibition at 8 min, 3 µM [2]: 14%
IC20 [23]: 320 nM
Ratio Ki [9]: 8
CLint scaled [3]: 9 mL/min/kg
Ki [10]: 0.18 nM
Ratio [24]: 15
ED50 [20]: 0.63 mg/kg
IC50 [4]: 710 nM
Ki [11]: 16 nM

Source: ChEMBL document CHEMBL3217574, “Discovery of CP-866,087, a mu opioid receptor antagonist for the treatment of alcohol abuse and dependence” (Medchemcomm, 2011)
